Test results from PMC5601486, “Identification of 4-phenylquinolin-2(1H)-one as a specific allosteric inhibitor of Akt” (Scientific Reports, 2017).

Tests used:
[1] = test system: JAK3(JH1domain-catalytic); assay: KINOMEscan; conditions: 50000 nM
Description: KINOMEscan™ selectivity screen
(§4) The assay was perfor med at DiscoveRx Corporation according the methods published previously5. […] The kinases were produced in HEK-293 cells and subsequently tagged with DNA for qPCR detection. Streptavidin-coated magnetic beads were treated with biotinylated small molecule ligands to generate affinity resins for kinase
(§5) inhibitor or DMSO control was performed in polypropylene 384-well plates for 1 hr at room temperature. After wash with PBS buffer containing 0.05% Tween 20, the beads were incubated in elution buffer (PBS containing 0.05 % Tween 20 and 0.5 μM non-biotinylated affinity ligand) for 30 minutes at room temperature. The kinase concentration in the eluates was measured by qPCR.

[2] = test system: CAMK1B; assay: KINOMEscan; conditions: 50000 nM
Description: KINOMEscan™ selectivity screen
as §4, §5

[3] = test system: QSK; assay: KINOMEscan; conditions: 50000 nM
Description: KINOMEscan™ selectivity screen
(§6) The assay was perfor med at DiscoveRx Corporation according the methods published previously5. Briefly, Kinase-tagged T7 phage strains were grown in parallel in an E. coli host derived from the BL21 strain. E. coli were grown to log-phase and infected with T7 phage from a frozen stock and incubated with shaking at 32°C until lysis (90-150 minutes). The kinases were produced in HEK-293 cells and subsequently tagged with DNA for qPCR detection. Streptavidin-coated magnetic beads were treated with biotinylated small molecule ligands to generate affinity resins for kinase
as §5

[4] = test system: MST2; assay: KINOMEscan; conditions: 50000 nM
Description: KINOMEscan™ selectivity screen
as §4, §5

[5] = test system: MEK2; assay: KINOMEscan; conditions: 50000 nM
Description: KINOMEscan™ selectivity screen
as §6, §5

[6] = test system: PRKCH; assay: KINOMEscan; conditions: 50000 nM
Description: KINOMEscan™ selectivity screen
The kinases were produced in HEK-293 cells and subsequently tagged with DNA for qPCR detection. Streptavidin-coated magnetic beads were treated with biotinylated small molecule ligands to generate affinity resins for kinase
as §5

[7] = test system: IKK-epsilon; assay: KINOMEscan; conditions: 50000 nM
Description: KINOMEscan™ selectivity screen
(§7) Briefly, Kinase-tagged T7 phage strains were grown in parallel in an E. coli host derived from the BL21 strain. E. coli were grown to log-phase and infected with T7 phage from a frozen stock and incubated with shaking at 32°C until lysis (90-150 minutes). The kinases were produced in HEK-293 cells and subsequently tagged with DNA for qPCR detection. Streptavidin-coated magnetic beads were treated with biotinylated small molecule ligands to generate affinity resins for kinase
as §5

[8] = test system: SRC; assay: KINOMEscan; conditions: 50000 nM
Description: KINOMEscan™ selectivity screen
as §6, §5

[9] = test system: CLK3; assay: KINOMEscan; conditions: 50000 nM
Description: KINOMEscan™ selectivity screen
as §7, §5

[10] = test system: RIPK4; assay: KINOMEscan; conditions: 50000 nM
Description: KINOMEscan™ selectivity screen
as §6, §5

[11] = test system: TYK2(JH2domain-pseudokinase); assay: KINOMEscan; conditions: 50000 nM
Description: KINOMEscan™ selectivity screen
as §6, §5

[12] = test system: FLT3(ITD,F691L); assay: KINOMEscan; conditions: 50000 nM
Description: KINOMEscan™ selectivity screen
as §6, §5

[13] = test system: FLT3(R834Q); assay: KINOMEscan; conditions: 50000 nM
Description: KINOMEscan™ selectivity screen
as §4, §5

[14] = test system: ABL1(E255K)-phosphorylated; assay: KINOMEscan; conditions: 50000 nM
Description: KINOMEscan™ selectivity screen
as §6, §5

[15] = test system: YANK3; assay: KINOMEscan; conditions: 50000 nM
Description: KINOMEscan™ selectivity screen
as §6, §5

[16] = test system: CSF1R; assay: KINOMEscan; conditions: 50000 nM
Description: KINOMEscan™ selectivity screen
as §6, §5

[17] = test system: EGFR(L858R,T790M); assay: KINOMEscan; conditions: 50000 nM
Description: KINOMEscan™ selectivity screen
as §6, §5

[18] = test system: TXK; assay: KINOMEscan; conditions: 50000 nM
Description: KINOMEscan™ selectivity screen
as §6, §5

[19] = test system: RET(V804M); assay: KINOMEscan; conditions: 50000 nM
Description: KINOMEscan™ selectivity screen
as §6, §5

[20] = test system: GRK1; assay: KINOMEscan; conditions: 50000 nM
Description: KINOMEscan™ selectivity screen
as §6, §5

[21] = test system: CDK8; assay: KINOMEscan; conditions: 50000 nM
Description: KINOMEscan™ selectivity screen
as §6, §5

[22] = test system: ACVRL1; assay: KINOMEscan; conditions: 50000 nM
Description: KINOMEscan™ selectivity screen
as §6, §5

[23] = test system: SNRK; assay: KINOMEscan; conditions: 50000 nM
Description: KINOMEscan™ selectivity screen
as §4, §5

[24] = test system: EGFR(T790M); assay: KINOMEscan; conditions: 50000 nM
Description: KINOMEscan™ selectivity screen
as §6, §5

[25] = test system: GRK4; assay: KINOMEscan; conditions: 50000 nM
Description: KINOMEscan™ selectivity screen
as §4, §5

[26] = test system: LATS1; assay: KINOMEscan; conditions: 50000 nM
Description: KINOMEscan™ selectivity screen
as §6, §5

[27] = test system: CHEK1; assay: KINOMEscan; conditions: 50000 nM
Description: KINOMEscan™ selectivity screen
as §6, §5

[28] = test system: EPHB4; assay: KINOMEscan; conditions: 50000 nM
Description: KINOMEscan™ selectivity screen
as §7, §5

[29] = test system: SBK1; assay: KINOMEscan; conditions: 50000 nM
Description: KINOMEscan™ selectivity screen
as §6, §5

[30] = test system: T1, SGK1; assay: ADP-Glo kinase assay; assay type: biochemical; conditions: 50 µM
T1 construct: purchased Promega V2911
Description: (§1) Elisa Assay for phosphorylation of Akt
(§2) Neuro 2A cells in 48-well plates were incubated with the inhibitor for 30 minutes at 37°C followed by IGF stimulation for 30 min. Cells were lysed and subjected to Elisa assay using an Akt (S473) InstantOne Elisa kit (ThermoFisher Scientific, # 8586042-11) in accordance with manufacturer ’s instruction.
(§3) An ADP-GloTM kinase assay kit (Promega, # V9101) was used to measure the activity of PDK1 or SGK1 in accordance with the manufacturer’s instructions. For PDK1 assay, the reaction mixture included 5 µM ATP, 50 µM inhibitor, 100 ng recombinant PDK1 and 2 µg PDKtide substrate (Promega, #V2761) prior to the addition of the ADP-Glo reagents. For SGK1, 5 µM ATP, 50 µM inhibitor, 10 ng SGK1 and 1 µg Akt substrate peptide (Promega, #V2911) were used. Staurosporine at concentration between 0.4 and 4,000 nM or the SGK1 inhibitor GSK-650394 (Tocris Bioscience) between 7 and 2,000 nM were used as controls for PDK1 or SGK1 assay respectively. For PI3K assay, 50 µM ATP, 50 µM inhibitor, 100 ng recombinant PI3 kinase (SignalChem, Richmond, Canada, # P27-10H-05) and 1.5 mg/mL multilamellar phospholipid vesicles containing PC/PE/PS/PIP2 (at mass ratio of 1/0.5/0.2/0.1) were used. Inhibitor blanks as well as LY-294002 between 78 and […]

[31] = test system: T2, PDK1; assay: ADP-Glo kinase assay; assay type: biochemical; conditions: 50 µM
T2 construct: purchased Promega V2761
Description: as §1, §2, §3

[32] = test system: ABL1(Q252H)-nonphosphorylated; assay: KINOMEscan; conditions: 50000 nM
Description: KINOMEscan™ selectivity screen
as §6, §5

[33] = test system: PKMYT1; assay: KINOMEscan; conditions: 50000 nM
Description: KINOMEscan™ selectivity screen
as §7, §5

[34] = test system: STK39; assay: KINOMEscan; conditions: 50000 nM
Description: KINOMEscan™ selectivity screen
as §6, §5

## Oc1cc(-c2ccccc2)c2ccccc2n1 [G7, 4-phenylquinolin-2(1H)-one]
[1]
  Percent Control: 56%
[2]
  Percent Control: 52%
[3]
  Percent Control: 85%
[4]
  Percent Control: 76%
[5]
  Percent Control: 72%
[6]
  Percent Control: 75%
[7]
  Percent Control: 100%
[8]
  Percent Control: 65%
[9]
  Percent Control: 92%
[10]
  Percent Control: 80%
[11]
  Percent Control: 15%
[12]
  Percent Control: 40%
[13]
  Percent Control: 76%
[14]
  Percent Control: 56%
[15]
  Percent Control: 93%
[16]
  Percent Control: 7.4%
[17]
  Percent Control: 90%
[18]
  Percent Control: 93%
[19]
  Percent Control: 85%
[20]
  Percent Control: 75%
[21]
  Percent Control: 85%
[22]
  Percent Control: 100%
[23]
  Percent Control: 84%
[24]
  Percent Control: 100%
[25]
  Percent Control: 96%
[26]
  Percent Control: 87%
[27]
  Percent Control: 85%
[28]
  Percent Control: 92%
[29]
  Percent Control: 86%
[30]
  effect on SGK1 activity: no effects
[31]
  effect on PDK1 activity: no effects
[32]
  Percent Control: 46%
[33]
  Percent Control: 65%
[34]
  Percent Control: 85%
